Measured values published in patent US20070104750A1, “Pesticidally active compositions having enhanced activity” (priority 2005, published 2007).
Read-outs that look alike come from different tables or passages of the source.

What was measured:
[1] = system: beet armyworm (Spodoptera exigua) larvae
[2] = From the text: Determination of whether a pesticidally active ingredient is reactive with singlet oxygen can be determined from a simple singlet oxygen reactivity test, comprising irradiating a solution of a pesticidally active ingredient in the presence of a photosensitizer, e.g. methylene blue or rose bengal, with a suitable light source, e.g. a sodium lamp, whose spectral output is capable of allowing light absorption by the photo-sensitizer while bypassing the absorption band of the pesticidally active ingredient. The light source, in combination with the photosensitizer and molecular oxygen, will generate singlet oxygen. The observed degradation of the pesticidally active ingredient by a suitable analytical technique, such as HPLC, is indicative of its reaction with singlet oxygen. This test can be conducted in solvents in which singlet oxygen has a relatively long lifetime, e.g. perdeuterated versions of common solvents and carbon disulfide in order to speed the rate of reaction and thereby maximize the detectability of the degradation. Decay constants for singlet oxygen in various solvents are well known in the art and can be found in J. Phys. […] An Expanded and Revised Compilation” by Francis Wilkinson, W. Phillip Helman and Alberta B. Ross; Table 1, entitled Decay Constants for Singlet Oxygen in Various Solvents.
Confirmation of the degradation of the pesticidally active ingredient by singlet oxygen can be obtained further by adding a molecule which is capable of deactivating singlet oxygen by physical or chemical means, i.e. a singlet oxygen quencher, to the pesticidally active ingredient-photosensitizer solution. Suitable singlet oxygen quenchers include, for example DABCO (1,4-diazabicyclo[2.2.2]octane) and beta-carotene. A reduction in the rate of degradation of the pesticidally active ingredient in the presence of a singlet oxygen quencher confirms that the initial degradation was due to the reaction with singlet oxygen.
The solution was irradiated with a Philips 150 watt high pressure sodium lamp (sample was ca. 20 cm from lamp). […] The experiment was repeated with the inclusion of the singlet oxygen quencher DABCO (1.0×10^−3M, diazabicyclooctane Aldrich). A value greater than one indicates a slowing of the degradation due to singlet oxygen in the presence of the quencher.

[3] = activity enhancer alone, 1000 ppm, 9 DAT
[4] = activity enhancer alone, 10,000 ppm, 4 DAT
[5] = activity enhancer alone, 10,000 ppm, 7 DAT

Question: For `C1CN2CCN1CC2` [DABCO, diazabicyclooctane], which Percent mortality ([1]; activity enhancer alone, 1000 ppm, 2 DAT) is on record?
Answer: The Percent mortality was 0%.

Question: What about the Percent mortality ([1]; activity enhancer alone, 1000 ppm, 7 DAT) of the same molecule?
Answer: The Percent mortality was 0%.

Question: And the Percent mortality [1, 3]?
Answer: Its Percent mortality is 0%.

Question: With `CCO[C@@H]1[C@@H](OC)[C@H](C)O[C@@H](O[C@@H]2C[C@H]3CC[C@@H]4[C@@H](C=C5C(=O)[C@H](C)[C@@H](O[C@H]6CC[C@H](N(C)C)[C@@H](C)O6)CCC[C@H](CC)OC(=O)C[C@H]54)[C@@H]3C2)[C@@H]1OC` [DE-175 J, (2R,3aR,5aR,5bS,9S,13S,14R,16aS,16bR)-13-{[(2R,5S,6R)-5-(dimethylamino)-6-methyltetrahydro-2H-pyran-2-yl]oxy}-9-ethyl-14-methyl-7,15-dioxo-2,3,3a,4,5,5a,5b,6,7,9,10,11,12,13,14,15,16a,16b-octadecahydro-1H-as-indaceno[3,2-d]oxacyclododecin-2-yl 6-deoxy-3-O-ethyl-2,4-di-O-methyl-α-L-mannopyranoside] as the molecule, how does the “rate constant for the degradation” value [2] read?
Answer: Its value is 0.1317 min⁻¹.

Question: What about the kwo/kw ([2]; potential activity enhancer TEPA, weight ratio I/II 3.3:1, acetonitrile) of the same molecule?
Answer: The kwo/kw was 1.9.

Question: What about the kwo/kw ([2]; potential activity enhancer Tryptophan, weight ratio I/II 1:1, methanol) of the same molecule?
Answer: The kwo/kw was 1.15.

Question: And the kwo/kw ([2]; potential activity enhancer Tryptophan, weight ratio I/II 1:10, methanol)?
Answer: Its kwo/kw is 1.3.

Question: And the kwo/kw ([2]; potential activity enhancer Zein, weight ratio I/II 1:5, isopropanol(85)/water(15))?
Answer: Its kwo/kw is 1.0.

Question: What about the kwo/kw ([2]; quencher DABCO, weight ratio active ingredient/DABCO 3.3:1, acetonitrile) of the same molecule?
Answer: Its kwo/kw is 5.1.

Question: For `CC(Cc1ccc(C(C)(C)C)cc1)CN1C[C@@H](C)O[C@@H](C)C1` (stereo partly drawn) [Fenpropimorph], which kwo/kw ([2]; quencher DABCO, weight ratio active ingredient/DABCO 2.7:1, acetonitrile) is on record?
Answer: The kwo/kw was 7.7.

Question: Which Percent mortality [1, 3] does the source give for `C1N2CN3CN1CN(C2)C3` [HMTA, hexamethylenetetramine] here?
Answer: Its Percent mortality is 4%.

Question: With `C=CCOC(Cn1ccnc1)c1ccc(Cl)cc1Cl` (stereo not drawn) [Imazalil] as the molecule, how does the kwo/kw ([2]; quencher DABCO, weight ratio active ingredient/DABCO 2.6:1, acetonitrile) read?
Answer: The kwo/kw was 4.4.

Question: With Abamectin as the molecule, how does the kwo/kw ([2]; potential activity enhancer Zein, weight ratio I/II 1:20, isopropanol(85)/water(15)) read?
Answer: Its kwo/kw is 1.0.

Question: And the kwo/kw ([2]; quencher DABCO, weight ratio active ingredient/DABCO 7.8:1, acetonitrile-d3)?
Answer: The kwo/kw was 37.2.

Question: Which Percent mortality [1, 4] does the source give for “BSA (as 30% aqueous suspension): Bovine Serum Albumin available from Sigma” here?
Answer: Its Percent mortality is 0%.

Question: What about the Percent mortality [1, 5] of the same molecule?
Answer: Its Percent mortality is 0%.

Question: What does the source list for “BSA (as 96% powder): Bovine Serum Albumin available from Sigma”?
Answer: Percent mortality [1, 4]: 0%; Percent mortality [1, 5]: 0%

B1: Egg albumin: Egg Albumin available from Sigma (protein, UniProt P01012 2-386, looked up)
Ovalbumin: GSIGAASMEFCFDVFKELKVHHANENIFYCPIAIMSALAMVYLGAKDSTRTQINKVVRFDKLPGFGDSIEAQCGTSVNVHSSLRDILNQITKPNDVYSFSLASRLYAEERYPILPEYLQCVKELYRGGLEPINFQTAADQARELINSWVESQTNGIIRNVLQPSSVDSQTAMVLVNAIVFKGLWEKAFKDEDTQAMPFRVTEQESKPVQMMYQIGLFRVASMASEKMKILELPFASGTMSMLVLLPDEVSGLEQLESIINFEKLTEWTSSNVMEERKIKVYLPRMKMEEKYNLTSVLMAMGITDVFSSSANLSGISSAESLKISQAVHAAHAEINEAGREVVGSAEAGVDAASVSEEFRADHPFLFCIKHIATNAVLFFGRCVSP
Question: What does the source list for B1?
Answer: Percent mortality ([1]; activity enhancer alone, 1000 ppm, 3 DAT): 0%; Percent mortality ([1]; activity enhancer alone, 1000 ppm, 5 DAT): 0%; Percent mortality ([1]; activity enhancer alone, 1000 ppm, 8 DAT): 0%
